Measurements published in patent US6369003B1, “Process and composition for soil improvement by reducing microbially formed ethylene in the soil” (BASF Aktiengesellschaft, priority 1994, dated 2002).

Experiments:
[1] = test system: Lucerne plants (Maricopa); assay: Lucerne: root nodules and shoot biomass, greenhouse; assay type: in vivo, Medicago sativa; conditions: 25 days after treatment; for Root nodules: untreated 10.5; for Dry matter shoot: untreated 180
Description: (§1) In these tests various types of non-sterile soils were used. The cultivation of the plants was carried out under greenhouse or climatic chamber conditions. The active compounds according to the invention were applied uniformly distributed over the soil surface in an aqueous preparation after the emergence of the respective test plants. The supply of water for the plants was carrried out using the same technique, always paying attention to uniform moistness of the soil. In the case of the cultivation of legumes, defined amounts of species-specific Rhizobia were admixed to the soil. In some cases inoculation was also carried out by seed treatment.
Lucerne plants (Maricopa) were cultivated under greenhouse conditions in low N, sandy loam soil in plastic pots (750 ml) and watered from above as required. A few days after emergence the plants were thinned out to 3 plants per pot.
In 5 pots in each case 25 ml of an aqueous preparation of one concentration of 2.3.1.3 were applied by watering. 5 pots remained untreated.
(§2) 25 days after treatment the following results were obtained: […]

[2] = test system: Wheat (Ralle); assay: Promotion of shoot growth of wheat, greenhouse; assay type: in vivo; conditions: applied by watering 10 days after sowing; 3 weeks after treatment
Description: as §1
Wheat (Ralle) and rape (Petranova) plants were cultured under greenhouse conditions in low N Limburgerhof soil in plastic pots (500 ml) and watered from above as required. The water content of the soil here was about 80% of the maximum water capacity. A few days after emergence the plants were thinned out to 40 plants per pot.
10 days after sowing aqueous preparations of 2.3.1.3 were applied by watering to 8 pots per test series in each case. 16 pots in each case remained untreated. 3 weeks after treatment the fresh shoot weight of the plants was determined.

[3] = test system: Soybeans of the variety Delta Pine 147; assay: Field test: seed yield in soybeans; assay type: in vivo, Glycine max; conditions: untreated = 100 (29.9 dt/ha)
Description: The tests a) and b) were carried out under conditions like those in practice in 1993 on the field test site of BASF Corporation in Holly Springs, N.C., USA. This location is distinguished by a medium-heavy soil (sandy loam).
Soybeans of the variety Delta Pine 147 were used. Treatment was carried out to the following stages of development: 11 (1st trefoil formed), 13 (3rd trefoil formed) and 14 (5th trefoil formed). For treatment, the soil between the rows was sprayed with an aqueous preparation of the active compound 2.3.1.3. Immediately after the application, the active compound was washed into the soil by spray irrigation with 20 mm of water. The spray irrigation was also used to wash off active compound which had possibly reached the leaves.
Harvesting of the plants at full maturity gave the following results: […]

[4] = test system: Bean plants (Small Seeded Bell); assay: Field beans: root nodules, root and shoot biomass, greenhouse; assay type: in vivo, Vicia faba; conditions: 25 days after treatment; for Nodules: untreated 30.9; for Dry matter root: untreated 1090; for Dry matter shoot: untreated 2310
Description: as §1
Bean plants (Small Seeded Bell) were cultivated under greenhouse conditions in low N, sandy loam soil in plastic pots (750 ml) and watered from above as required. A few days after emergence the plants were thinned out to 3 plants per pot.
In 5 pots in each case 25 ml each of an aqueous preparation of one concentration of 2.3.1.3 were applied by watering. 5 pots remained untreated.
as §2

[5] = test system: Soybeans (A 5403); assay: Soybeans test 3d: root nodules, root and shoot biomass, greenhouse; assay type: in vivo, Glycine max; conditions: 30 days after treatment; for Nodules: untreated 38.3; for Dry matter root: untreated 1955; for Dry matter shoot: untreated 3616
Description: as §1, with “treatment. d) Soybeans (A 5403) were cultivated under greenhouse conditions in low N, sandy loam soil in plastic pots (750 ml) and watered from above as required. A few days after emergence the plants were thinned out to 3 plants per pot. In 5 pots in each case 25 ml each of an aqueous preparation of one concentration of 2.3.1.3 were applied by watering. 5 pots remained untreated. 30 days after treatment the following results were obtained: […]” for “treatment.”

[6] = test system: Chick-pea plants (UC-27); assay: Chick-peas: root nodules, root and shoot biomass, greenhouse; assay type: in vivo, Cicer arietinum; conditions: 25 days after treatment; for Nodules: untreated 11.3; for Dry matter root: untreated 1100; for Dry matter shoot: untreated 2110
Description: as §1
Chick-pea plants (UC-27) were cultivated under greenhouse conditions in low N, sandy loam soil in plastic pots (750 ml) and watered from above as required. A few days after emergence the plants were thinned out to 3 plants per pot.
In 6 pots in each case 25 ml each of an aqueous preparation of one concentration of 2.3.1.3 were applied by watering. 6 pots remained untreated.
as §2

COC(=O)COC(=O)CON=C(C)C [active compound 2.3.1.3]
Root nodules ([1]; 30 g of a.s./ha): 10.7 number/plant
Dry matter shoot ([1]; 30 g of a.s./ha): 300 mg/plant
Root nodules ([1]; 300 g of a.s./ha): 10.3 number/plant
Dry matter shoot ([1]; 300 g of a.s./ha): 240 mg/plant
shoot growth (fresh shoot weight) [2]: shoot growth was promoted in nearly all cases
Bean yield ([3]; 10 g/ha of a.s., growth stage 11 during treatment): 104%
Bean yield ([3]; 10 g/ha of a.s., growth stage 13 during treatment): 116%
Bean yield ([3]; 10 g/ha of a.s., growth stage 14 during treatment): 110%
Bean yield ([3]; 100 g/ha of a.s., growth stage 11 during treatment): 122%
Bean yield ([3]; 100 g/ha of a.s., growth stage 13 during treatment): 117%
Bean yield ([3]; 100 g/ha of a.s., growth stage 14 during treatment): 112%
Bean yield ([3]; 1000 g/ha of a.s., growth stage 11 during treatment): 110%
Bean yield ([3]; 1000 g/ha of a.s., growth stage 13 during treatment): 122%
Bean yield ([3]; 1000 g/ha of a.s., growth stage 14 during treatment): 108%
Nodules ([4]; 30 g of a.s./ha): 34.3 number/plant
Dry matter root ([4]; 30 g of a.s./ha): 1380 mg/plant
Dry matter shoot ([4]; 30 g of a.s./ha): 2880 mg/plant
Nodules ([4]; 300 g of a.s./ha): 50.7 number/plant
Dry matter root ([4]; 300 g of a.s./ha): 1470 mg/plant
Dry matter shoot ([4]; 300 g of a.s./ha): 3940 mg/plant
Nodules ([4]; 3000 g of a.s./ha): 48.2 number/plant
Dry matter root ([4]; 3000 g of a.s./ha): 960 mg/plant
Dry matter shoot ([4]; 3000 g of a.s./ha): 2450 mg/plant
Nodules ([5]; 3 g of a.s./ha): 47.6 number/plant
Dry matter root ([5]; 3 g of a.s./ha): 2806 mg/plant
Dry matter shoot ([5]; 3 g of a.s./ha): 4020 mg/plant
Nodules ([5]; 300 g of a.s./ha): 54.9 number/plant
Dry matter root ([5]; 300 g of a.s./ha): 1326 mg/plant
Dry matter shoot ([5]; 300 g of a.s./ha): 4117 mg/plant
Nodules ([6]; 30 g of a.s./ha): 31.4 number/plant
Dry matter root ([6]; 30 g of a.s./ha): 1280 mg/plant
Dry matter shoot ([6]; 30 g of a.s./ha): 2690 mg/plant
Nodules ([6]; 300 g of a.s./ha): 44.0 number/plant
Dry matter root ([6]; 300 g of a.s./ha): 1520 mg/plant
Dry matter shoot ([6]; 300 g of a.s./ha): 3350 mg/plant
Nodules ([6]; 3000 g of a.s./ha): 6.2 number/plant
Dry matter root ([6]; 3000 g of a.s./ha): 1150 mg/plant
Dry matter shoot ([6]; 3000 g of a.s./ha): 4110 mg/plant
